According to patent US20070105810A1, “THERAPEUTICS” (priority 2003, published 2007):
“Also recorded” adds a separate entry of the source. Counter-ions that a name gives are not always drawn. Blank lines part the entries; values can stand above or below the compound they belong to.

What was measured:
NAADP binding site = assay: [32P]NAADP binding to sea urchin egg homogenate
Procedure: [^32P]NAADP binding to 0.5% sea urchin egg homogenate.
Competitive CMA008 (1-Carbamoylmethyl-3-carboxy-pyridinium iodide) displacement of [^32P]NAADP (0.2 nM). Samples diluted in GluIM (intracellular medium), pre-incubated with indicated concentration of CMA008 for 10 minutes, then 0.2 nM [^32P]NAADP added and incubated at room temperature for a further 15 mins. Samples filtered through Whatman GF/B filters to separate bound and free [^32P]NAADP ligand. Non specific binding is defined by incubation of the homogenate in the presence of 10 μM NAADP. n=2. Data expressed as a fraction of total binding.
2.5% sea urchin egg homogenate was diluted into GluIM pre-incubated with indicated concentration of CMA008 for 10 minutes at room temperature (A=100 nM, B=1 nM, C=10 μM). Subsequently, [^32P]NAADP was added and samples incubated for a further 15 minutes at room temperature. Samples were filtered through Whatman GF/B filters to separate bound and free [^32P]NAADP ligand.

[1] = test system: NAADP-sensitive release mechanism; assay: NAADP-mediated calcium release in sea urchin egg homogenate (Fluo-3); format: biochemical; details: 250 nM NAADP, 2.5% homogenate, read-out: IC50, inhibition of NAADP calcium mobilization
Procedure: (§1) Samples diluted to 2.5% in GluIM in the presence of regenerating system and kept at 17° C. with agitation for 3 hours to facilitate calcium uptake into stores. Calcium release was determined by measuring increase in Fluo-3 fluorescence at 526 nm. Data expressed as % of 250 nM NAADP calcium release in the absence of CMA008 (1-Carbamoylmethyl-3-carboxy-pyridinium iodide). […] CMA008 has no effect on the total calcium mobilization by IP3 or cADPR (insert) indicating the selectivity of this compound on the NAADP-sensitive release mechanism.
(§2) • Subcellular fractions: calcium concentrations are measured with fluo-3 (3 μM) at physiological temperatures, using cell homogenates or subcellular fractions in a fluorimeter (Perkin-Elmer LS-50B) at 506 nm excitation and 526 nm emission. • Intact cells: Injected or hydrolysed ester derivatives of calcium sensitive dye are imaged in intact cells by laser-scanning confocal microscopy (TCS NT, Leica) Images were processed with the software NIH Image to create a self-ratio by dividing each image (F) by an image acquired before stimulation (Fo). [drawing 13] wherein R1, R2 and R3 are as defined herein. I Preparation of Nicotinic Acid Derivatives [drawing 14]

[2] = test system: calcium mobilization by IP3; assay: Calcium mobilization by IP3 in sea urchin egg homogenate; format: biochemical
Procedure: as §1, §2

[3] = test system: calcium mobilization by cADPR; assay: Calcium mobilization by cADPR in sea urchin egg homogenate; format: biochemical
Procedure: as §1, §2

[4] = test system: NAADP-induced calcium release in intact sea urchin eggs; assay: Calcium release on photolysis of caged NAADP in intact sea urchin eggs; format: cell-based, Lytechinus pictus
Source text: Sea urchin eggs were microinjected with a solution containing the calcium reporter dye, calcium green dextran, together with caged NAADP. Fluorescence was then imaged on a Leica confocal microscope using an excitation wavelength of 488 nm. In the control egg [see FIG. 6 A] a brief UV flash photolysed a proportion of the caged NAADP and evoked a large calcium transient.
Sea urchin eggs of Lytechinus pictus were obtained by intracoelomic injection of 0.5 M KCl shed into artificial sea water (in mM, NaCl 435, MgCl2 40, MgSO4 15, CaCl2 11, KCl 10, NaHCO3 2.5, EDTA 1), dejellied by passing through […] nylon mesh, and then washed twice by centrifugation. Eggs were transferred to polylysine-coated glass coverslips for microinjection and microscopy. Oregon Green 488 BAPTA (1,2-bis(2-aminophenoxy)ethane-N,N,N9,N9-tetraacetic acid dextran; Molecular Probes) was pressure-microinjected (Picospritzer; World Precision Instruments). The calcium-sensitive dye was imaged by laser-scanning confocal microscopy (Leica model TCS NT) using the 488-nm line of an argon ion laser for excitation, and the emission was long passfiltered (515 nm) and detected with a photomultiplier tube. Caged NAADP (^29P-(1-(2-nitrophenyl)ethyl) NAADP; Molecular Probes) was purified further by high performance liquid chromatography to remove small amounts of contaminating free NAADP. […]

pancreatic acinar cells = assay: CCK-induced oscillations of Ca2+ in pancreatic acinar cells; format: cell-based, mouse; details: for CCK-evoked calcium spiking/oscillations: external application, 1 mM, pre- and post-applied with respect to CCK (5 pM)
Procedure: Pancreatic acinar cells were seeded onto poly-lysine-coated number 1 glass coverslips and loaded by incubating cells with 1-5 μM fura-2 acetoxymethylester (Molecular Probes; Leiden, Holland) for 60 min at room temperature. After the loading period, cells were subsequently washed and maintained in buffer at room temperature and used immediately. Cells were excited alternately with 340 and 380 nm light (emission 510 nm), and ratio image of clusters were recorded every 4-5 s, using a 12-bit CCD camera (MicroMax; Princeton Instruments, NJ). All experiment were conducted at room temperature. CMA008 (1-Carbamoylmethyl-3-carboxy-pyridinium iodide) is dissolved in 50% DMSO. Final concentration of DMSO is 0.5% in the solution (composition in mM: 140 NaCl, 4.7 KCl, 1 CaCl2, 1.13 MgCl2, 10 HEPES, 10 Glucose, pH adjusted to 7.2)
Pancreatic acinar cells were isolated from mice and dispersed by collagenase treatment. Cells were incubated with fura-2 AM for 30 min and washed before being imaged on a Metafluor system. The cells were alternately excited at 340/380 nm and emitted light collected at around 510 nm. The ratio of the intensities of emitted light at the two excitation wavelengths were calculated, converted to free calcium concentrations, and plotted again time.
Pancreatic acinar cells were seeded onto poly-lysine-coated number 1 glass coverslips and loaded with calcium indicator by incubating cells with […] fura-2 acetoxymethylester (Molecular Probes; Leiden, Holland) for 60 min at room temperature. After the loading period, cells were subsequently washed and maintained in buffer at room temperature and used immediately. Cells were excited alternately with 340 and 380 nm light (emission 510 nm), and ratio image of clusters 5 were recorded every 4-5 s, using a 12-bit CCD camera (MicroMax; Princeton Instruments, NJ).
All experiments were conducted at room temperature. CMA008 (1-Carbamoylmethyl-3-carboxy-pyridinium iodide) was dissolved in 50% DMSO. Final concentration of DMSO was 0.5% in the solution (composition in mM: 140 NaCl, 4.7 KCl, 1 CaCl2, 1.13 MgCl2, 10 HEPES, 10 Glucose, pH adjusted to 7.2). The inhibition of CCK-evoked calcium spiking, both pre- and post-applied with respect to CCK (5 pM), was consistent with inhibition of NAADP-induced calcium release by CMA008 (1 mM). The biological data for these experiments is presented in FIG. 7 (see also the description of the figures above).

[5] = test system: transfer experimental autoimmune encephalomyelitis (EAE) in Lewis rats; assay: Transfer experimental autoimmune encephalomyelitis (EAE); format: in vivo, Lewis rat; details: 50 μmol/100 g body weight i.p. twice per day; day 3.5 to day 6
Source text: Transfer of MBP-specific CD4-positive T cells was used at day 0 to induce experimental autoimmune encephalomyelitis (EAE) in Lewis rats. Animals injected with PBS (vehicle) or nicotinic acid (control compound with structural similarities to BZ52) developed severe paralysis of tail and rear legs due to the inflammation. Clinical symptoms started day 3.5 and reached their maxima day 4 to 6 (or 6.5). Between day 3.5 and day 6, no difference between PBS and nicotinic acid was observed, whereas a beneficial effect of BZ52 was visible (FIG. 14).
Animals (6 per group, body weight approx. 150 g) were injected i.p. twice per day with either PBS (vehicle control), nicotinic acid (50 μmol/100 g body weight), or BZ 52 (50 μmol/100 g body weight). Clinical scores indicate the degree of paralysis of tail and legs. Data are presented as mean±SD from one representative experiment (n=6).
Animals (6 per group, body weight approx. 150 g) were injected i.p. twice per day with either PBS (vehicle control), nicotinic acid (50 μmol/100 g body weight), or BZ 52 (50 μmol/100 g body weight). […] Data are presented as mean±SD from one representative experiment (n=6).
5×10^6 activated MBP specific-GFP Tcells were transferred i.v. into recipient Lewis rats. Clinical EAE was graded in five scores: 0.5, loss of tail tonus; 1, tail paralysis; 2, gait disturbance; 3, hind limb paralysis; 4, tetraparesis; 5, death.
Animals' weight was measured twice a day.
In order to analyze the effect of BZ194 on encephalitogenic T cells during the effector phase of EAE we used retrovirally transduced MBP-specific T cells expressing the marker gene green fluorescent protein (TMBP-GFP cells).
Animals were treated for 5 d intraperitoneally with 500 μmol BZ194 or vehicle (DMSO).

SMILES: O=C(O)c1ccc[n+](Cc2ccccc2)c1 (as salt: bromide)
- melting point: 203 to 205 °C

SMILES: CCN(CC)C(=O)C[n+]1cccc(C(=O)OC)c1 (as salt: iodide)
- melting point: 163 to 165 °C

SMILES: COC(=O)c1ccc[n+](CCC(N)=O)c1 (as salt: iodide)
- melting point: 98 to 100 °C

SMILES: COC(=O)c1ccc[n+](CCCC#N)c1 (as salt: iodide)
- melting point: 167 to 170 °C

SMILES: CCN(CC)CC[n+]1cccc(C(=O)OC)c1 (as salt: iodide)
- melting point: 172 to 174 °C

Now from value to compound, other results behind:

- melting point: 162 to 165 °C
SMILES: CCC[n+]1cccc(C(=O)O)c1 (as salt: iodide)

- melting point: 97 to 100 °C
SMILES: CCN(CC)C(=O)C[n+]1cccc(C(=O)O)c1 (as salt: iodide) [Example 10, 3-Carboxy-1-diethylcarbamoylmethyl-pyridinium; iodide]

- melting point: 170 to 173 °C
SMILES: NC(=O)CC[n+]1cccc(C(=O)O)c1 (as salt: iodide) [Example 11, 1-(2-Carbamoyl-ethyl)-3-carboxy-pyridinium; iodide]

- effect on the Bmax (NAADP binding site; 1 nM and 100 nM CMA008): no effect
- Bmax (total specific binding of [32P]NAADP) (NAADP binding site; in the presence of 10 μM CMA008, 2.5% homogenate, 68.65%±2.7 in its absence): 46.28%±2.61
- IC50 [1]: 15.1 µM
- cell membrane permeation ([4]; inferred from activity of compound applied outside the cell): permeates the cell membrane
SMILES: NC(=O)C[n+]1cccc(C(=O)O)c1 [CMA008, 1-Carbamoylmethyl-3-carboxy-pyridinium iodide]
- effect on total calcium mobilization by IP3 [2]: no effect
- effect on total calcium mobilization by cADPR [3]: no effect
- calcium release on photolysis of caged NAADP ([4]; CMA008 10 mM applied externally in sea water, NPE-NAADP 1 μM): blocks; also recorded: failed to induce
- CCK-evoked calcium spiking (pancreatic acinar cells; CMA008 1 mM added post-CCK (5 pM)): inhibition
- resting calcium levels (pancreatic acinar cells; CMA008 1 mM added pre-CCK): no apparent effect
- response to CCK (pancreatic acinar cells; CMA008 1 mM added pre-CCK (5 pM)): a much smaller response to CCK was seen, with a greatly reduced frequency
- CCK-evoked calcium spiking/oscillations (pancreatic acinar cells): inhibition
- CCK-evoked calcium spiking/oscillations (pancreatic acinar cells; listed as CM008): inhibited or reduced

- effect on [32P]NAADP binding to egg membranes (NAADP binding site; up to 1 mM, 0.2 nM [32P]NAADP, 0.5% homogenate): without effect
SMILES: O=C(O)c1cccnc1 [nicotinic acid, reference compound]
- clinical symptoms (clinical score) vs PBS [5]: no difference
